# Results taken from US12201626B2, “Bifunctional compositions for the treatment of cancer” (ARMACEUTICA, INC., priority 2018, dated 2025).
# What was measured:
# Type in all cases: cell-based, human
# MDA-MB-231 cells = assay: Mitochondrial membrane potential, JC-1 flow cytometry; conditions: 6 h; vs untreated and solvent treated cells
# Procedure: (§1) After treatment, the cells were harvested and stained with 2 μM of the fluorophore 5,5′,6,6′-tetrachloro-1,1′,3,3′-tetraethylbenzimidazolylcarbocyanine iodide (JC-1) following manufacturer's instructions (MitoProbe; Life Technologies, Grand Island, NY, USA). Cells with healthy polarized mitochondria favour JC-1 to form aggregates, which emit a red signal. […] Similar controls as above were concurrently analysed. Data acquisition and analysis were achieved by using CXP software (Beckman Coulter). Each data point was analysed in triplicate.
# HL-60 cells = assay: as above; conditions: 6 h; vs untreated and solvent treated cells
# Procedure: as §1
# CEM cell line = assay: Differential Nuclear Staining (DNS) cytotoxicity assay
# Text: In this study, 19 human cell lines were utilized: seven breast human cancer; MDA-MB-468, MCF-7, T47D, HCC1419, HCC70, MDA-MB-231 (triple negative) and its lung metastatic (LM) derivative MDA-MB-231 LM2; four human leukemia/lymphoma cells, HL-60, Ramos, Jurkat and CEM, three human ovarian cancer, Ovcar 8, Ovcar 5 and Ovcar 3, one lung cancer, one melanoma and one pancreatic cell line, A549, A375, Panc-1 respectively. Furthermore, for selectivity/comparative purposes, the cell lines from the non-cancerous origin, MCF-10A, HS-27 were also included. […] The adherent cells, growing in the logarithmic growth phase at a 60-75% confluence, were detached by utilizing a HyQtase enzyme (Thermo Fisher Scientific Inc.), counted and seeded in 96-well plates at 10,000 cells density in 100 μL of culture medium per well. […]
# To analyze the potential cytotoxic activity of PND, the Differential Nuclear Staining (DNS) assay, which was validated for high-throughput screening (HTS) using live-cell bio-imaging was utilized. […] Montages of 2 by 2 images were captured directly from each individual well of the culture plates by using a multi-well plate reader IN Cell 2000 analyzer, an HTS and high-content analysis (HCA) system (GE Healthcare Life Sciences, Pittsburgh, PA). […] Each experimental data point, as well as controls, were assessed in triplicates. […]
smiles,measurement,setting,value
"COC1=CC=C2Nc3cc(Cl)ccc3C(N=C3C=C(CN4CCCC4)C(=O)C(CN4CCCC4)=C3)=C2N1 [PND, 4-[(7-chloro-2-methoxy-1,5-dihydrobenzo[b][1,5]naphthyridin-10-yl)imino]-2,6-bis(pyrrolidin-1-ylmethyl)cyclohexa-2,5-dien-1-one]","mitochondrial depolarization (Δψm, JC-1)",MDA-MB-231 cells,significant mitochondrial depolarization
same,"mitochondrial depolarization (Δψm, JC-1)",HL-60 cells,significant mitochondrial depolarization
same,selectivity (SCI),CEM cell line,poor selectivity
